Paper PMC9355812 (The Oncologist, 2022)

Key:
[1] = Adverse events, NCI CTCAE version 4.0, worst grade in any cycle; type: in vivo, human; details: 2 patients, first vorinostat dose level (400 mg orally days 1-5 of each cycle)
[2] = paclitaxel 100 mg/m^2; patients receiving PIs (nelfinavir, indinavir, other multiple protease inhibitors); Kaposi Sarcoma and HIV; cited from earlier work
[3] = Paclitaxel plasma pharmacokinetics, cycle 1 day 1; type: in vivo, human
[4] = Ritonavir cohort, cycle 1, paclitaxel 175 mg/m^2 IV with carboplatin

| SMILES | toxicity of PCb combination with vorinostat [1] | Paclitaxel exposure as measured by AUC [2] [µM·h] | differences in Cmax or AUCinf between the 2 cohorts ([3]; 6 patients, ritonavir vs non-ritonavir) | Cl [3, 4] [L/hr/m^2] | Time > C 0.5 µM [3, 4] [h] | duration spent at a paclitaxel concentration >0.05 µM ([3]; non-ritonavir cohort) [h] | pharmacokinetic interaction with ritonavir ([3]; ritonavir at a boosting dose for ART in combination with paclitaxel) | duration spent at a paclitaxel concentration >0.05 µM ([3]; ritonavir cohort) [h] |
| --- | --- | --- | --- | --- | --- | --- | --- | --- |
| O=C(CCCCCCC(=O)Nc1ccccc1)NO [vorinostat] | without prohibitive toxicity | – | – | – | – | – | – | – |
| CC(=O)O[C@H]1C(=O)[C@@]2(C)[C@H]([C@H](OC(=O)c3ccccc3)[C@]3(O)C[C@H](OC(=O)[C@H](O)[C@@H](NC(=O)c4ccccc4)c4ccccc4)C(C)=C1C3(C)C)[C@]1(OC(C)=O)CO[C@@H]1C[C@@H]2O [Paclitaxel] | – | 5.5 ± 2.2 | no significant differences | 4.1 | 22.7 | 23.8 | no evidence for pharmacokinetic interaction | 22.7 |
